{"source": "ChEMBL document CHEMBL5653615", "about": "(J Biol Chem, 2013)", "key": {"[1]": {"biological_target": "Tyrosine-protein kinase ABL2 (Homo sapiens) (UniProt P42684)", "sequence (P42684 whole entry)": "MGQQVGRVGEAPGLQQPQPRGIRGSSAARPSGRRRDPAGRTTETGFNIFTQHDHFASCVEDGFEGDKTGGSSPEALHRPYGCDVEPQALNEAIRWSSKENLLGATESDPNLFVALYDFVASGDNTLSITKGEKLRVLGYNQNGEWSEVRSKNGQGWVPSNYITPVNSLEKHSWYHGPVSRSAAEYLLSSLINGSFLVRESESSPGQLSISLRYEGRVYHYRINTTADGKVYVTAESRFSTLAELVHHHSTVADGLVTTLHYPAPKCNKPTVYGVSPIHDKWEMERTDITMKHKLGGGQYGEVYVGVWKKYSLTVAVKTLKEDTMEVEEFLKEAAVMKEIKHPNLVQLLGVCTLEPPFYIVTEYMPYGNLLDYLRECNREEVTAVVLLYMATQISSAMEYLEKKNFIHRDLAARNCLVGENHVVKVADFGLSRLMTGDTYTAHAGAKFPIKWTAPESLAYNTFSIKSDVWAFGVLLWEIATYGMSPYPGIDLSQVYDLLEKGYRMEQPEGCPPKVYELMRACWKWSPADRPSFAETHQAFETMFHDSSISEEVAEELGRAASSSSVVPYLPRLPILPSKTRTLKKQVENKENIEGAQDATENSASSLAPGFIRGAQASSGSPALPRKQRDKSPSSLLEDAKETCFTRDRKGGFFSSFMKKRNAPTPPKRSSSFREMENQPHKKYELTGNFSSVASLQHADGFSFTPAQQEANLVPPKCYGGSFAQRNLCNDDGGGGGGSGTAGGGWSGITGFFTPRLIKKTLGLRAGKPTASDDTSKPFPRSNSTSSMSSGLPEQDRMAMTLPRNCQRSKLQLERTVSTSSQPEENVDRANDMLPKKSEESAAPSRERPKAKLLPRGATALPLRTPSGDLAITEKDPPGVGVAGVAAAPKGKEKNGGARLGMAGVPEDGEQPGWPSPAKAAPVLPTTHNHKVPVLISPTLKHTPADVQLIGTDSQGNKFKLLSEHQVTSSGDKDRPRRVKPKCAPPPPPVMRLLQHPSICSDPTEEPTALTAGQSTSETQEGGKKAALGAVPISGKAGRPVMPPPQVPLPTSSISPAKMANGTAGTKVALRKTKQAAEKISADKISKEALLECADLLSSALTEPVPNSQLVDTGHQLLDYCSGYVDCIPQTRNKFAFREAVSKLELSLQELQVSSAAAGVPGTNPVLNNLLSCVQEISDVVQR", "assay": "Inhibition of human ABL2 at 18.6 nM by HotSpot assay relative to control"}, "[2]": {"biological_target": "Cyclin-dependent kinase 4/cyclin D1 (Homo sapiens) (UniProt P11802+P24385)", "assay": "Inhibition of human CDK4/cyclin D1 at 18.6 nM by HotSpot assay relative to control", "type": "protein-complex assay"}, "[3]": {"biological_target": "G protein-coupled receptor kinase 5 (Homo sapiens) (UniProt P34947)", "assay": "Inhibition of human GRK5 at 18.6 nM by HotSpot assay relative to control"}, "[4]": {"biological_target": "Mitogen-activated protein kinase kinase kinase 9 (Homo sapiens) (UniProt P80192)", "assay": "Inhibition of human MAP3K9 at 18.6 nM by HotSpot assay relative to control"}, "[5]": {"biological_target": "T1, Serine/threonine-protein kinase D3 (Homo sapiens) (UniProt O94806)", "T1 sequence (whole entry)": "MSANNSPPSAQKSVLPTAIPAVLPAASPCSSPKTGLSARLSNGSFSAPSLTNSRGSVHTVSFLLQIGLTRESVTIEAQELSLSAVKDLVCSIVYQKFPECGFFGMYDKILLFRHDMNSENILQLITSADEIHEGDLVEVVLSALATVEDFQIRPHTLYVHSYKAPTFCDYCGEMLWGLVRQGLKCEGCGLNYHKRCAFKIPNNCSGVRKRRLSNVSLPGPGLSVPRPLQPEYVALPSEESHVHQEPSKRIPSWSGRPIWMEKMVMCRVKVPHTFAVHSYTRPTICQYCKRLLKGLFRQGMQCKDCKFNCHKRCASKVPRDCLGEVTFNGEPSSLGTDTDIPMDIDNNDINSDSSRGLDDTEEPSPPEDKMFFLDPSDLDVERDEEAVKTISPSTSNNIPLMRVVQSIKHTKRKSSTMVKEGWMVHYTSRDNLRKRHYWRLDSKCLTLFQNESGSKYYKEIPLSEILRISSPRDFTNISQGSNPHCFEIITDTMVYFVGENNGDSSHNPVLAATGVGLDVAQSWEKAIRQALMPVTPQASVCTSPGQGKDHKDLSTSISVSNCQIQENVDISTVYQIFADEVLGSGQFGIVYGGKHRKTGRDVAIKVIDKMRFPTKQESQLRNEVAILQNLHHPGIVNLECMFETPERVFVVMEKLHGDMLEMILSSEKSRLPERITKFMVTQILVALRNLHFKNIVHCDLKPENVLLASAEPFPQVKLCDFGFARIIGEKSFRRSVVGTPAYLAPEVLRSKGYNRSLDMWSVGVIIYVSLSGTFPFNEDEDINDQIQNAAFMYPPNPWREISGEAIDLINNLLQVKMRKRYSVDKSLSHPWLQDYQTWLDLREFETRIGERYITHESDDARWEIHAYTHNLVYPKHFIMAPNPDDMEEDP", "assay": "Inhibition of human PRKD3 at 18.6 nM by HotSpot assay relative to control"}, "[6]": {"biological_target": "T2, Serine/threonine-protein kinase Sgk2 (Homo sapiens) (UniProt Q9HBY8)", "T2 sequence (whole entry)": "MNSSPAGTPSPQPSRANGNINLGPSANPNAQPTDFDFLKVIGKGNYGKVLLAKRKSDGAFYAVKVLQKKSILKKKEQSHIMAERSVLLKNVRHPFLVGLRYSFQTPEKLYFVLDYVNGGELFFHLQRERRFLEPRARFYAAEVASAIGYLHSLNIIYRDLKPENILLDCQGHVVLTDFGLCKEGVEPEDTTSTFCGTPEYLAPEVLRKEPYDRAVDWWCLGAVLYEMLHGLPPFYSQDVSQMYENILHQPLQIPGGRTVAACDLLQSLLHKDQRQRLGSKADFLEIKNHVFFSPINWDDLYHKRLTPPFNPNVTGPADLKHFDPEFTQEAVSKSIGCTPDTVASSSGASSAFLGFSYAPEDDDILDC", "assay": "Inhibition of human SGK2 at 18.6 nM by HotSpot assay relative to control"}, "[7]": {"biological_target": "Platelet-derived growth factor receptor beta (Homo sapiens) (UniProt P09619)", "sequence (P09619 whole entry)": "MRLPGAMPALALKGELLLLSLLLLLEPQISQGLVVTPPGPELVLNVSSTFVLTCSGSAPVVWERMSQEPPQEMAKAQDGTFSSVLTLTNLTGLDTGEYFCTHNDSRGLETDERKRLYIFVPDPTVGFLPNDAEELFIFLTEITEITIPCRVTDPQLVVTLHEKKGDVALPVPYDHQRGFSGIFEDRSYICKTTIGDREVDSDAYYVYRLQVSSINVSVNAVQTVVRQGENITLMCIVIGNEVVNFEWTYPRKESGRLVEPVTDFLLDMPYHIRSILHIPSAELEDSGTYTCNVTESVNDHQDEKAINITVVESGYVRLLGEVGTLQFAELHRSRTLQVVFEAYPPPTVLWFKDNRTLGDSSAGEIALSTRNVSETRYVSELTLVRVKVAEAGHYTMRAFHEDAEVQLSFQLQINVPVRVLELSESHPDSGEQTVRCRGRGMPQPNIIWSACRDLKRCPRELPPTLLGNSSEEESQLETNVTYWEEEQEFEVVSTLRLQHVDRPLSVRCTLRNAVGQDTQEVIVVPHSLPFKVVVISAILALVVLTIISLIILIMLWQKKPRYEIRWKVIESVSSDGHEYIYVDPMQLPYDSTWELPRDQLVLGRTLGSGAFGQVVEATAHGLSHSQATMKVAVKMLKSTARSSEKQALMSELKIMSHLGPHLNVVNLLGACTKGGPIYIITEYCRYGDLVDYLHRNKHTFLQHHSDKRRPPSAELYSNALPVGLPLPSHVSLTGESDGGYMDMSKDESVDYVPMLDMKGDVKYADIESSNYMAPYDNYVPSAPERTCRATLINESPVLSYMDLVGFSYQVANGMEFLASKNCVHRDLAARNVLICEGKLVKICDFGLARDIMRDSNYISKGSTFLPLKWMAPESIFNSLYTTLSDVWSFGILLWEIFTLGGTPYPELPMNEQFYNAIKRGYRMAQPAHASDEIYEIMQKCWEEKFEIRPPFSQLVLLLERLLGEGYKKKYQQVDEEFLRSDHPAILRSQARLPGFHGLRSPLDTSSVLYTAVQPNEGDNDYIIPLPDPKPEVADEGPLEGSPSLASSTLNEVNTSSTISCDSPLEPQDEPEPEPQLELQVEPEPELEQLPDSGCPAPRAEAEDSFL", "assay": "Inhibition of human PDGFRb at 500 nM by HotSpot assay relative to control"}, "[8]": {"biological_target": "Tyrosine-protein kinase Fyn (Homo sapiens) (UniProt P06241)", "sequence (P06241 2-537 limits assumed)": "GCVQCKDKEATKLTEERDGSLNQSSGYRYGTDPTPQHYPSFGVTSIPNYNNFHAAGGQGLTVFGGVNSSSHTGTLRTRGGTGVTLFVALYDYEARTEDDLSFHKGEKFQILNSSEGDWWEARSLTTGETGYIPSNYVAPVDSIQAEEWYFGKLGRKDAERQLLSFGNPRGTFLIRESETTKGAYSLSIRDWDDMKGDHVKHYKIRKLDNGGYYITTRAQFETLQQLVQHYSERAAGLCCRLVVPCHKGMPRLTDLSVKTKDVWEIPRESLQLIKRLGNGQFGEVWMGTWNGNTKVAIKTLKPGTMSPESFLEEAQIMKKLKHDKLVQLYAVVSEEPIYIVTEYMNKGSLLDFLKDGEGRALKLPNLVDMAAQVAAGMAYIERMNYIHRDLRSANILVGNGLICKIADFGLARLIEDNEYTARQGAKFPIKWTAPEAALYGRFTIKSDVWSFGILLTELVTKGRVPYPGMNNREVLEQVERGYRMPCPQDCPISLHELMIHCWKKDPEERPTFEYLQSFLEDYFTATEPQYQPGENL", "assay": "Inhibition of human FYN at 1.82 nM by HotSpot assay relative to control"}, "[9]": {"biological_target": "Ribosomal protein S6 kinase alpha-4 (Homo sapiens) (UniProt O75676)", "sequence (O75676 whole entry, looked up)": "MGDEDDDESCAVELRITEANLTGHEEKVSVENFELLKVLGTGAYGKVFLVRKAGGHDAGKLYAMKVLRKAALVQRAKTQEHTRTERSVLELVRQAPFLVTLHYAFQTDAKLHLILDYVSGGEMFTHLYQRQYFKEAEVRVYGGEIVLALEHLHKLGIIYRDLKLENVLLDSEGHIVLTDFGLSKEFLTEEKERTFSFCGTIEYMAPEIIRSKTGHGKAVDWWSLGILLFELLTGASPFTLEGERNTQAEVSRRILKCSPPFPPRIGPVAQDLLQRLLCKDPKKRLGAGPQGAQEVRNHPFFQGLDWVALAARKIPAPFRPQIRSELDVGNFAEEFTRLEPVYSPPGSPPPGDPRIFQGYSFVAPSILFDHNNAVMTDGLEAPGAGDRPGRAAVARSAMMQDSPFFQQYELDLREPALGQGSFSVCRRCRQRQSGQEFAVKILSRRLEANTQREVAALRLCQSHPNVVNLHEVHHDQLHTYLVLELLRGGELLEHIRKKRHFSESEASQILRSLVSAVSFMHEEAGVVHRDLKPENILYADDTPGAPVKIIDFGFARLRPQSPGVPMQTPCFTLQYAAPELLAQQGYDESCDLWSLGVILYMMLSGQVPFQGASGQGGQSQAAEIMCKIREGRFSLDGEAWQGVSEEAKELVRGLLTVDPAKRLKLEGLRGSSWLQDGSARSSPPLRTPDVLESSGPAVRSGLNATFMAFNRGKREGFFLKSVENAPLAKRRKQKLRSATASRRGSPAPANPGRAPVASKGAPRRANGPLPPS", "assay": "Inhibition of human RPS6KA4 at 1.82 nM by HotSpot assay relative to control"}, "[10]": {"biological_target": "T3, Serine/threonine-protein kinase Nek3 (Homo sapiens) (UniProt P51956)", "T3 sequence (whole entry)": "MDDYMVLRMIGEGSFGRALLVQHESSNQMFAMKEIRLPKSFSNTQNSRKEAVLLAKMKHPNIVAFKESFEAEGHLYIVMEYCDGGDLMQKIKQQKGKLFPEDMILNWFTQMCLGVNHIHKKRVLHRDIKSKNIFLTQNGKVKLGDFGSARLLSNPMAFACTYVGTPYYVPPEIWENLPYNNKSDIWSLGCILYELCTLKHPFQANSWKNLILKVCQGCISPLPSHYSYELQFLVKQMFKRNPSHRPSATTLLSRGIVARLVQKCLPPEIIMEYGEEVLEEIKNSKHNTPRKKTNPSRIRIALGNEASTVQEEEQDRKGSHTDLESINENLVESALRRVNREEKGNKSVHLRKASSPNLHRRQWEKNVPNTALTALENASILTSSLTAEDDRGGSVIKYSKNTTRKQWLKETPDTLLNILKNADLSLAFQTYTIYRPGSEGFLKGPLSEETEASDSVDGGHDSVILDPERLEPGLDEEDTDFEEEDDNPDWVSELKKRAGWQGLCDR", "assay": "Inhibition of human NEK3 at 1.82 nM by HotSpot assay relative to control"}, "[11]": {"biological_target": "Serine/threonine-protein kinase pim-1 (Homo sapiens) (UniProt P11309)", "sequence (P11309 whole entry, looked up)": "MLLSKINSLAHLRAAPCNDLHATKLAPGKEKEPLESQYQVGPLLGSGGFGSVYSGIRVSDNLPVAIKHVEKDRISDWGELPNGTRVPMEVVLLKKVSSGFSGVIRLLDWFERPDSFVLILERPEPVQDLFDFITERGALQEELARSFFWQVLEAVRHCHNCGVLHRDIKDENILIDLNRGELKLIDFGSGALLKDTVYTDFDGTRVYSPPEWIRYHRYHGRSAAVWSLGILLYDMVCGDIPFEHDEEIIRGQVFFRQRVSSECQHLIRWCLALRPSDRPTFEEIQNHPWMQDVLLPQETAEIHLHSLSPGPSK", "assay": "Inhibition of human PIM1 at 1.82 nM by HotSpot assay relative to control"}, "[12]": {"biological_target": "Serine/threonine-protein kinase SIK2 (Homo sapiens) (UniProt Q9H0K1)", "sequence (Q9H0K1 whole entry, looked up)": "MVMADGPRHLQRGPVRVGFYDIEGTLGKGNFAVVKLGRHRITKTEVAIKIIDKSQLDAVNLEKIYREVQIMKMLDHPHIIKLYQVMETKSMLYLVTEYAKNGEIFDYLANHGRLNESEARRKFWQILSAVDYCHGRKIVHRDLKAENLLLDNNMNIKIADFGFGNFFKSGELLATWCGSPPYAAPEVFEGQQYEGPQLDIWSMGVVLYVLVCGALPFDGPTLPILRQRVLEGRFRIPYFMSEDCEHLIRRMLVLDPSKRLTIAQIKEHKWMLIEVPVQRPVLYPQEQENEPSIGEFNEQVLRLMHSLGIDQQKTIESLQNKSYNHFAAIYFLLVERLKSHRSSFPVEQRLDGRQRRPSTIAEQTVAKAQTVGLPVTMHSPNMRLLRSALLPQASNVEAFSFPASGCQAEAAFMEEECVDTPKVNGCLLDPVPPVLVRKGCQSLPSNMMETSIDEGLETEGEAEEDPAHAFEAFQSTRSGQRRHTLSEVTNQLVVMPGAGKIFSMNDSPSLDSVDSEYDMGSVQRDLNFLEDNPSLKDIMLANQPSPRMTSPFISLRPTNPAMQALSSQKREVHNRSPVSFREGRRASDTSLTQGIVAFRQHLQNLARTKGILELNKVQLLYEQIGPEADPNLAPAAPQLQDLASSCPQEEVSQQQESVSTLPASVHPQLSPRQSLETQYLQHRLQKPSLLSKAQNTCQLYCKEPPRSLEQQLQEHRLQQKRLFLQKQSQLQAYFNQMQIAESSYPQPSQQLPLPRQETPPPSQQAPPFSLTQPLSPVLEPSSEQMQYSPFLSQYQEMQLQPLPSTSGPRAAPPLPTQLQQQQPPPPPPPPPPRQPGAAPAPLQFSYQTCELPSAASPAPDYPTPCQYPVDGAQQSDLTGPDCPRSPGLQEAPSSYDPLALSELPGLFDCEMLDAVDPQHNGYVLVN", "assay": "Inhibition of human SIK2 at 1.82 nM by HotSpot assay relative to control"}}, "data": [{"molecule": "C[C@]1(O)C[C@@H](c2nc(-c3ccc4ccc(-c5ccccc5)nc4c3)c3c(N)nccn32)C1", "values": [{"measurement": "inhibition", "setting": "[1]", "result": -0.1, "unit": "%"}, {"measurement": "inhibition", "setting": "[2]", "result": -1.49, "unit": "%"}, {"measurement": "inhibition", "setting": "[3]", "result": -6.77, "unit": "%"}, {"measurement": "inhibition", "setting": "[4]", "result": -2.33, "unit": "%"}, {"measurement": "inhibition", "setting": "[5]", "result": 9.14, "unit": "%"}, {"measurement": "inhibition", "setting": "[6]", "result": -3.95, "unit": "%"}]}, {"molecule": "Oc1n[nH]c2nnc(-c3c(-c4ccccc4)nn4ccccc34)cc12", "values": [{"measurement": "inhibition", "setting": "[7]", "result": -0.46, "unit": "%"}]}, {"molecule": "C[C@@]1(C(=O)Nc2ccc(F)nc2)CCCN1c1nc(Nc2cc(C3CC3)n[nH]2)c2cccn2n1", "values": [{"measurement": "inhibition", "setting": "[8]", "result": -6.23, "unit": "%"}, {"measurement": "inhibition", "setting": "[9]", "result": -3.34, "unit": "%"}, {"measurement": "inhibition", "setting": "[10]", "result": 1.63, "unit": "%"}, {"measurement": "inhibition", "setting": "[11]", "result": -5.96, "unit": "%"}, {"measurement": "inhibition", "setting": "[12]", "result": -6.97, "unit": "%"}]}]}
